Measurements: US7531646B2, “β-D-ribosidase activity indicators with a chromogenic substrate” (priority 2001, dated 2009)

Legend:
Assay in all cases: Substrate hydrolysis on Columbia agar
Format in all cases: cell-based
Vibrio cholerae = conditions: 300 mg/l, 18 hours
Aeromonas caviae = test system: Aeromonas caviae; design: key to the marks not given beside the values; conditions: Aeromonas caviae NCTC 10852; 300 mg/l; 18 hours
Streptococcus sanguis = Streptococcus sanguis NCTC 7863; 300 mg/l; 18 hours
[1] = test system: Providencia alcalifaciens; conditions: 300 mg/l, 18 hours
A. lwoffii = A. lwoffii ATCC 15309; 300 mg/l; 18 hours
Vibrio vulnificus = conditions: 300 mg/l, 18 hours
Listeria seerigeri = Listeria seerigeri PHLS wild; 300 mg/l; 18 hours
K. oxytoca = conditions: 300 mg/l, 18 hours
E. coli = conditions: 300 mg/l, 18 hours
Salmonella panama = Salmonella panama SAX 58; 300 mg/l; 18 hours
P. vulgaris = conditions: 300 mg/l, 18 hours
Salmonella typhimurium = Salmonella typhimurium NCTC 74; 300 mg/l; 18 hours
[2] = test system: Haemolytic streptococcus C; conditions: 300 mg/l, 18 hours
Salmonella oranienburg = Salmonella oranienburg SAX 56; 300 mg/l; 18 hours
Enterococcus gellinarum = Enterococcus gellinarum NCTC 11428; 300 mg/l; 18 hours
[3] = test system: Staphylococcus haemolyticus; conditions: 300 mg/l, 18 hours
Vibrio cincinnatiensis = Vibrio cincinnatiensis NCTC 12012; 300 mg/l; 18 hours
A. calcoaceticus = A. calcoaceticus ATCC 7844; 300 mg/l; 18 hours
Vibrio fluvialis = test system: Vibrio fluvialis; design: key to the marks not given beside the values; conditions: Vibrio fluvialis NCTC 11327; 300 mg/l; 18 hours
Listeria innocua = Listeria innocua PHLS wild; 300 mg/l; 18 hours
[4] = test system: Staphylococcus saprophyticus; conditions: 300 mg/l, 18 hours
Vibrio alcaligenes = Vibrio alcaligenes NCTC 12160; 300 mg/l; 18 hours

## 3′,4′-dihydroxyflavone-4′-β-D-glucopyranoside sodium salt [DHF-glucoside]
Vibrio cholerae; Vibrio cholera NCTC 6585
  Hydrolysis by Gram negative bacteria: −
Vibrio cholerae; Vibrio cholera NCTC 7270
  Hydrolysis by Gram negative bacteria: −
Vibrio cholerae; Vibrio cholera NCTC 8021
  Hydrolysis by Gram negative bacteria: −
Vibrio cholerae; Vibrio cholera NCTC 10732
  Hydrolysis by Gram negative bacteria: −
Vibrio cholerae; Vibrio cholera NCTC 12945
  Hydrolysis by Gram negative bacteria: −
Vibrio cholerae; Vibrio cholerae NCTC 7254
  Hydrolysis by Gram negative bacteria: −
Vibrio cholerae; Vibrio cholerae NCTC 8042
  Hydrolysis by Gram negative bacteria: −
Vibrio cholerae; Vibrio cholerae NCTC 10255
  Hydrolysis by Gram negative bacteria: −
Vibrio cholerae; Vibrio cholerae NCTC 10954
  Hydrolysis by Gram negative bacteria: −
Aeromonas caviae
  Hydrolysis by Gram negative bacteria: ++
Streptococcus sanguis
  Hydrolysis by Gram positive organisms: −
[1]; Providencia alcalifaciens PAL 1
  Hydrolysis by Gram negative bacteria: +
[1]; Providencia alcalifaciens PAL 2
  Hydrolysis by Gram negative bacteria: +
A. lwoffii
  Hydrolysis by Gram negative bacteria: −
Vibrio vulnificus; Vibrio vulnificus NCTC 11066
  Hydrolysis by Gram negative bacteria: +
Vibrio vulnificus; Vibrio vulnificus NCTC 11067
  Hydrolysis by Gram negative bacteria: +
Listeria seerigeri
  Hydrolysis by Gram positive organisms: ++
K. oxytoca; K. oxytoca KOX 1
  Hydrolysis by Gram negative bacteria: +
K. oxytoca; K. oxytoca KOX 2
  Hydrolysis by Gram negative bacteria: +
E. coli; E. coli ECO 2
  Hydrolysis by Gram negative bacteria: −
E. coli; E. coli ECO 3
  Hydrolysis by Gram negative bacteria: −
E. coli; E. coli ECO 4
  Hydrolysis by Gram negative bacteria: −
E. coli; E. coli ECO 5
  Hydrolysis by Gram negative bacteria: −
E. coli; E. coli ECO 6
  Hydrolysis by Gram negative bacteria: −
E. coli; E. coli ECO 7
  Hydrolysis by Gram negative bacteria: −
E. coli; E. coli ECO 8
  Hydrolysis by Gram negative bacteria: −
E. coli; E. coli ECO 9
  Hydrolysis by Gram negative bacteria: −
E. coli; E. coli ECO 10
  Hydrolysis by Gram negative bacteria: −
E. coli; E. coli ECO 11
  Hydrolysis by Gram negative bacteria: −
E. coli; E. coli ECO 12
  Hydrolysis by Gram negative bacteria: −
E. coli; E. coli NCTC 10418
  Hydrolysis by Gram negative bacteria: −
Salmonella panama
  Hydrolysis by Gram negative bacteria: −
P. vulgaris; P. vulgaris PVU 2
  Hydrolysis by Gram negative bacteria: −
P. vulgaris; P. vulgaris PVU 4
  Hydrolysis by Gram negative bacteria: −
P. vulgaris; P. vulgaris PVU 5
  Hydrolysis by Gram negative bacteria: −
Salmonella typhimurium
  Hydrolysis by Gram negative bacteria: −
[2]; Haemolytic streptococcus C 1
  Hydrolysis by Gram positive organisms: −
[2]; Haemolytic streptococcus C 67736
  Hydrolysis by Gram positive organisms: −
[2]; Haemolytic streptococcus C 68350
  Hydrolysis by Gram positive organisms: −
Salmonella oranienburg
  Hydrolysis by Gram negative bacteria: −
Enterococcus gellinarum
  Hydrolysis by Gram positive organisms: ++
[3]; Staphylococcus haemolyticus RB 66
  Hydrolysis by Gram positive organisms: −
[3]; Staphylococcus haemolyticus RB 67
  Hydrolysis by Gram positive organisms: −
[3]; Staphylococcus haemolyticus RB 68
  Hydrolysis by Gram positive organisms: −
[3]; Staphylococcus haemolyticus RB 69
  Hydrolysis by Gram positive organisms: −
[3]; Staphylococcus haemolyticus RB 70
  Hydrolysis by Gram positive organisms: −
Vibrio cincinnatiensis
  Hydrolysis by Gram negative bacteria: +
A. calcoaceticus
  Hydrolysis by Gram negative bacteria: −
Vibrio fluvialis
  Hydrolysis by Gram negative bacteria: ++
Listeria innocua
  Hydrolysis by Gram positive organisms: ++
[4]; Staphylococcus saprophyticus 1
  Hydrolysis by Gram positive organisms: −
[4]; Staphylococcus saprophyticus 2
  Hydrolysis by Gram positive organisms: −
[4]; Staphylococcus saprophyticus 3
  Hydrolysis by Gram positive organisms: −
[4]; Staphylococcus saprophyticus 4
  Hydrolysis by Gram positive organisms: −
[4]; Staphylococcus saprophyticus 5
  Hydrolysis by Gram positive organisms: −
Vibrio alcaligenes
  Hydrolysis by Gram negative bacteria: −
